Test results taken from patent US20240130994A1, “IONIC LIQUID FORMULATIONS FOR TREATING DIABETES” (i2O Therapeutics, Inc., priority 2020, published 2024).
Entries after “also recorded” stand apart in the source; their conditions may differ. Where two headings read alike, the source gives them in different places.

Columns and labels:
[1] = Physical form of choline-based ionic liquids at room temperature; type: physicochemical
Procedure: Several ionic liquids comprising choline as a cation and various anions were synthesized. […] For anions not miscible with the aqueous choline bicarbonate solution, a co-solvent, such as ethanol, was added until a homogenous mixture formed. The mixture was stirred at room temperature until CO2 evolution ceased. Solvent was removed by rotary evaporation at 60° C. for 20 minutes, and each product was dried in a vacuum oven for 48 hours at 60° C.

[2] = test system: non-diabetic male Wistar rats; experiment: 30-day daily oral gavage safety study
Procedure: Adult non-diabetic male Wistar rats were dosed daily for 30 days via oral gavage with either 25 or 100 uL Choline-Cinnamic Acid 1:1.5. Two placebo groups received either 25 or 100 uL saline. Animals were observed daily for general health and weight recorded. On day 31, all animals were euthanized, and tissue, blood and plasma samples collected for analysis.

[3] = test system: Streptozocin-induced diabetic male Wistar rats; experiment: Blood glucose levels after oral liquid gavage in rat model of Type 1 diabetes; type: in vivo; conditions: Type 1 diabetes model rats
Procedure: About 250 μL of blood was collected at regular intervals in order to determine the blood glucose level. The obtained values, plotted as mean percent change±standard error in blood glucose levels with respect to initial reading (n=4) versus time, are shown in FIG. 11.

[4] = test system: Streptozotocin-induced diabetic male Wistar rats; experiment: Plasma insulin after administration in rat model of Type 1 diabetes; type: in vivo; conditions: subcutaneous injection, oral liquid gavage or jejunum catheter
Procedure: A fasting control group was not treated. About 250 μL of blood was collected at regular intervals in order to determine the insulin serum concentration.

[5] = test system: non-diabetic male Wistar rats; experiment: Glucose excretion in urine after intrajejunal injection; type: in vivo, rat; conditions: intrajejunal injection at varying doses, urine from bladder 1.5 hours post-injection
Procedure: At 1.5 hours post-injection, urine was sampled from the bladder to determine glucose concentration. The obtained glucose concentration values, plotted as percent change in blood glucose levels with respect to initial reading versus dose level and change in glucose concentration in the urine collected from the bladder versus dose level (n=1), are shown in FIG. 13.

[6] = test system: non-diabetic male Wistar rats; experiment: Blood glucose levels after subcutaneous injection or liquid gavage in fasted non-diabetic rats; type: in vivo, rat
Procedure: A fasting control group was dosed orally with a saline solution. About 250 μL of blood was collected at regular intervals in order to determine the blood glucose level. The obtained values, plotted as mean percent change±standard error in blood glucose levels with respect to initial reading (n=4) versus time, are shown in FIG. 10. […] About 250 μL of blood was collected at regular intervals in order to determine the blood glucose level. The obtained values, plotted as mean percent change±standard error in blood glucose levels with respect to initial reading (n=4) versus time, are shown in FIG. 11.

[7] = test system: non-diabetic male Wistar rats; experiment: Blood glucose levels after intrajejunal injection in fasted non-diabetic rats; type: in vivo, rat; conditions: for effect on blood glucose levels: 100 μL
Procedure: About 250 μL of blood was collected at regular intervals in order to determine the blood glucose level. The obtained values, plotted as mean percent change±standard error in blood glucose levels with respect to initial reading (n=3) versus time, are shown in FIG. 7.
About 250 μL of blood was collected at regular intervals in order to determine the blood glucose level. The obtained values, plotted as mean percent change±standard error in blood glucose levels with respect to initial reading (n=3) versus time, are shown in FIG. 8.
The obtained values, plotted as mean percent change±standard error in blood glucose levels with respect to initial reading (n=4) versus time, are shown in FIG. 9.

[8] = male, Wistar, rat, in vivo
Procedure: (§1) Adult non-diabetic male Wistar rats were fasted overnight but given free access to water and subsequently dosed via intrajejunal injection with liraglutide and choline-hydrocinnamic acid. A fasting control group was dosed with a saline solution via intrajejunal injection. About 250 L of blood was collected at hourly intervals in order to determine the liraglutide serum concentration.
(§2) Adult non-diabetic male Wistar rats were fasted overnight but given free access to water and subsequently dosed via intrajejunal injection with liraglutide and one of various choline-based ionic liquids.

[9] = in the presence of well-known permeation enhancers; cited from earlier work
[10] = Liraglutide serum concentration after intrajejunal injection of liraglutide with choline-based ionic liquid; conditions: for Peak 5-Hour Liraglutide Concentration: non-diabetic rats
Procedure: as §1, §2

[11] = cation:anion 1:1, room temperature
[12] = cation:anion 1:2, room temperature

O=C(O)C=Cc1ccccc1 [Cinnamic Acid]
Physical Form (Ratios Listed as Cation:Anion) [1, 11]: Liquid at 1:1, 1:1.5, 1:2 | Physical Form (Ratios Listed as Cation:Anion) ([1]; cation:anion 1:1.5, room temperature): Liquid at 1:1, 1:1.5, 1:2 | Physical Form (Ratios Listed as Cation:Anion) [1, 12]: Liquid at 1:1, 1:1.5, 1:2 | appearance and physical form ([1]; room temperature, ratio as in label): viscous yellow liquids | plasma indicators of organ toxicity vs placebo ([2]; 25 or 100 uL daily oral gavage for 30 days, rats): not statistically significantly different | IHC staining of tight junction proteins Claudin-1 and Occludin of GI tract tissues vs placebo ([2]; rat, in vivo, po): no difference | blood cell counts vs placebo ([2]; rat, in vivo, po): not statistically significantly different | histological examination (H&E) of organs and GI tract tissues vs saline placebo ([2]; rat, in vivo, po): no significant difference

CC(C)=CCCC(C)CC(=O)O (stereo not shown) [Citronellic Acid]
effect on blood glucose levels [3]: continued to drop | insulin secretion (plasma insulin concentration) [4]: Stimulation of insulin secretion was observed | Physical Form (Ratios Listed as Cation:Anion) [1, 11]: Liquid at 2:1, 1:1, 1:2 | Physical Form (Ratios Listed as Cation:Anion) [1, 12]: Liquid at 2:1, 1:1, 1:2 | Physical Form (Ratios Listed as Cation:Anion) ([1]; cation:anion 2:1, room temperature): Liquid at 2:1, 1:1, 1:2 | glucose concentration in the urine [5]: increasing glucose concentration in the urine | effect on blood glucose levels ([6]; oral liquid gavage, listed as choline-citronellic acid): reduced blood glucose levels; also recorded: dropped and recovered slowly with time | effect on blood glucose levels ([6]; subcutaneous injection): reduced blood glucose levels | effect on blood glucose level ([7]; 10, 20, 50 and 100 μL): dropped in a dose-dependent manner | blood glucose levels, % of starting levels ([7]; 50 μL dose): about 50% | effect on blood glucose levels [7]: pronounced decrease in blood glucose levels | drop in blood glucose level from baseline ([7]; 100 μL dose): about 70%

CCCCC/C=C\C/C=C\CCCCCCCC(=O)O [Linoleic Acid]
Physical Form (Ratios Listed as Cation:Anion) [1, 11]: Solid | Physical Form (Ratios Listed as Cation:Anion) [1, 12]: Liquid | Peak 5-Hour Liraglutide Concentration [8]: 44 ng/mL | fold improvement of liraglutide concentration over choline-citronellic acid [8]: about 10 fold

CCCCCCCC(=O)O [Octanoic Acid]
Physical Form (Ratios Listed as Cation:Anion) [1, 11]: Liquid | Physical Form (Ratios Listed as Cation:Anion) [1, 12]: Solid | effect on blood glucose levels [7]: neither choline-octanoic acid nor choline-octenoic acid decreased blood glucose levels

CCCCCCCCCCCCCCCC(=O)N[C@@H](CCC(=O)NCCCC[C@H](NC(=O)[C@H](C)NC(=O)[C@H](C)NC(=O)[C@H](CCC(N)=O)NC(=O)CNC(=O)[C@H](CCC(=O)O)NC(=O)[C@H](CC(C)C)NC(=O)[C@H](Cc1ccc(O)cc1)NC(=O)[C@H](CO)NC(=O)[C@H](CO)NC(=O)[C@@H](NC(=O)[C@H](CC(=O)O)NC(=O)[C@H](CO)NC(=O)[C@@H](NC(=O)[C@H](Cc1ccccc1)NC(=O)[C@@H](NC(=O)CNC(=O)[C@H](CCC(=O)O)NC(=O)[C@H](C)NC(=O)[C@@H](N)Cc1cnc[nH]1)[C@@H](C)O)[C@@H](C)O)C(C)C)C(=O)N[C@@H](CCC(=O)O)C(=O)N[C@@H](Cc1ccccc1)C(=O)N[C@H](C(=O)N[C@@H](C)C(=O)N[C@@H](Cc1c[nH]c2ccccc12)C(=O)N[C@@H](CC(C)C)C(=O)N[C@H](C(=O)N[C@@H](CCCNC(=N)N)C(=O)NCC(=O)N[C@@H](CCCNC(=N)N)C(=O)NCC(=O)O)C(C)C)[C@@H](C)CC)C(=O)O [liraglutide]
absorption of liraglutide [9]: only minute absorption

Choline-Octenoic acid
Peak 5-Hour Liraglutide Concentration ([10]; liraglutide with the ionic liquid, intrajejunal injection): 201 ng/mL | effect on blood glucose levels [7]: neither choline-octanoic acid nor choline-octenoic acid decreased blood glucose levels

Hydrocinnamic Acid (3-Phenylpropionic Acid)
Physical Form (Ratios Listed as Cation:Anion) [1, 11]: Liquid at 1:1, 1:2 | Physical Form (Ratios Listed as Cation:Anion) [1, 12]: Liquid at 1:1, 1:2 | blood concentration of liraglutide relative to those reported in the literature ([10]; liraglutide with choline-hydrocinnamic acid vs Buckley et al.): approximately 4,400 fold | liraglutide serum concentration ([10]; liraglutide with choline-hydrocinnamic acid, intrajejunal injection, rats): surprisingly high serum concentration | Peak 5-Hour Liraglutide Concentration ([10]; liraglutide with the ionic liquid, intrajejunal injection, listed as Choline-Hydrocinnamic acid): 2086 ng/mL | Peak 5-Hour Liraglutide Concentration ([10]; liraglutide with the ionic liquid, intrajejunal injection, listed as choline-hydrocinnamic acid): greater than 2000 ng/mL | fold improvement of liraglutide concentration over choline-citronellic acid ([10]; liraglutide with the ionic liquid, intrajejunal injection, rats): 500 fold
